Measured values as given in ChEMBL document CHEMBL3244280, “Thiazolinone analogues of indolmycin with antiviral and antibacterial activity” (J Med Chem, 1978).
In brackets after ≈: the same amount, converted by molar mass. Activity calls are given as the source filed them. The rule behind the calls is not given here.

What was measured:
[1] = Cytotoxicity against BHK cells; type: cell-based, Mesocricetus auratus; conditions: hamster
[2] = Cytotoxicity against human HeLa cells by neutral red assay; type: cell-based
[3] = tested on: Influenza A virus; experiment: Antiviral activity against influenza A virus NWS/H0N1 infected in BHK cells at 1 mg/ml by agar diffusion assay; type: functional; conditions: read-out: IZ
[4] = tested on: Influenza A virus; experiment: Antiviral activity against influenza A virus NWS/H0N1 infected in BHK cells by agar diffusion assay; type: functional
[5] = tested on: Coxsackievirus B1; experiment: Antiviral activity against Coxsackievirus B1 infected in human HeLa cells at 1 mg/ml by agar diffusion assay; type: functional; conditions: Enterovirus B; read-out: IZ
[6] = tested on: Coxsackievirus B1; experiment: Antiviral activity against Coxsackievirus B1 infected in human HeLa cells by agar diffusion assay; type: functional
[7] = tested on: Streptococcus pyogenes; experiment: Antibacterial activity against Streptococcus pyogenes CN10; type: functional
[8] = tested on: Staphylococcus aureus; experiment: Antibacterial activity against Staphylococcus aureus 1517; type: functional
[9] = tested on: Enterococcus faecalis; experiment: Antibacterial activity against Streptococcus faecalis I; type: functional
[10] = tested on: Bacillus subtilis; experiment: Antibacterial activity against Bacillus subtilis; type: functional
[11] = tested on: Human alphaherpesvirus 1; experiment: Antiviral activity against Herpes simplex virus 1 infected in chick embryo fibroblasts by plaque reduction assay; type: functional, organism-based
[12] = tested on: Staphylococcus aureus; experiment: Antibacterial activity against Staphylococcus aureus Russel; type: functional
[13] = tested on: Staphylococcus aureus; experiment: Antibacterial activity against Staphylococcus aureus Oxford; type: functional
[14] = tested on: Staphylococcus aureus; experiment: Antibacterial activity against Staphylococcus aureus Oxford up to 200 ug/ml; type: functional, organism-based
[15] = tested on: Enterococcus faecalis; experiment: Antibacterial activity against Streptococcus faecalis I up to 200 ug/ml; type: functional, organism-based
[16] = tested on: Staphylococcus aureus; experiment: Antibacterial activity against Staphylococcus aureus 1517 up to 200 ug/ml; type: functional, organism-based
[17] = tested on: Influenza A virus; experiment: Antiviral activity against influenza A virus NWS/H0N1 infected in BHK cells up to 100 ug/ml by agar diffusion assay; type: functional, organism-based
[18] = tested on: HeLa; experiment: Cytotoxicity against human HeLa cells up to 100 ug/ml; type: cell-based
[19] = tested on: Streptococcus pyogenes; experiment: Antibacterial activity against Streptococcus pyogenes CN10 up to 200 ug/ml; type: functional, organism-based
[20] = tested on: Staphylococcus aureus; experiment: Antibacterial activity against Staphylococcus aureus Russel up to 200 ug/ml; type: functional, organism-based
[21] = Cytotoxicity against BHK cells up to 100 ug/ml by carbol fuschin assay; type: cell-based, Mesocricetus auratus; conditions: hamster
[22] = tested on: Coxsackievirus B1; experiment: Antiviral activity against Coxsackievirus B1 infected in human HeLa cells up to 100 ug/ml by agar diffusion assay; type: functional, organism-based
[23] = tested on: Bacillus subtilis; experiment: Antibacterial activity against Bacillus subtilis up to 200 ug/ml; type: functional, organism-based

## OC(c1ccccc1)c1nc2ccccc2[nH]1 (stereo unspecified)
[1]
  MCC: > 100 µg/mL
[2]
  MCC: 100 µg/mL
[3]
  zone of inhibition at 1000 µg/mL: 0 mm
[4]
  PDD50: >100 µg/mL
[5]
  zone of inhibition at 1000 µg/mL: 24 mm
[6]
  PDD50: 20 µg/mL

## C[C@H](c1c[nH]c2ccccc12)[C@@H]1SC(N)=NC1=O
[1]
  MCC: 100 µg/mL
[3]
  zone of inhibition at 1000 µg/mL: 0 mm
[4]
  PDD50: 50 µg/mL
[7]
  MIC: 200 µg/mL (≈ 771 µM)
[8]
  MIC: 20 µg/mL (≈ 77.1 µM)
[9]
  MIC: 20 µg/mL (≈ 77.1 µM)
[5]
  zone of inhibition at 1000 µg/mL: 0 mm
[10]
  MIC: 200 µg/mL (≈ 771 µM)
[11]
  Activity: inactive
[12]
  MIC: 20 µg/mL (≈ 77.1 µM)

## NC1=NC(=O)C(Cc2c[nH]c3ccccc23)S1 (racemic)
[3]
  zone of inhibition at 1000 µg/mL: 0 mm
[7]
  MIC: > 200 µg/mL
[8]
  MIC: 200 µg/mL (≈ 815 µM)
[9]
  MIC: 200 µg/mL (≈ 815 µM)
[5]
  zone of inhibition at 1000 µg/mL: 0 mm
[10]
  MIC: > 200 µg/mL
[13]
  MIC: 200 µg/mL (≈ 815 µM)
[11]
  Activity: inactive
[12]
  MIC: 200 µg/mL (≈ 815 µM)

## CNC1=NC(=O)C(Cc2c[nH]c3ccccc23)S1 (racemic)
[1]
  MCC: 30 µg/mL
[2]
  MCC: > 100 µg/mL
[3]
  zone of inhibition at 1000 µg/mL: 14 mm
[4]
  PDD50: 10 µg/mL
[7]
  MIC: 200 µg/mL (≈ 771 µM)
[8]
  MIC: 20 µg/mL (≈ 77.1 µM)
[9]
  MIC: 20 µg/mL (≈ 77.1 µM)
[5]
  zone of inhibition at 1000 µg/mL: 9 mm
[10]
  MIC: > 200 µg/mL
[13]
  MIC: 20 µg/mL (≈ 77.1 µM)
[11]
  Activity: inactive
[6]
  PDD50: 100 µg/mL
[12]
  MIC: 20 µg/mL (≈ 77.1 µM)

## O=C1N/C(=N\c2ccccc2)SC1Cc1c[nH]c2ccccc12 (racemic)
[14]
  Activity: inactive
[15]
  Activity: inactive
[16]
  Activity: inactive
[17]
  Activity: inactive
[18]
  Activity: Non-toxic
[11]
  Activity: inactive
[19]
  Activity: inactive
[20]
  Activity: inactive
[21]
  Activity: Non-toxic
[22]
  Activity: inactive
[23]
  Activity: inactive

## O=C1NC(=S)SC1Cc1c[nH]c2ccccc12 (racemic)
[14]
  Activity: inactive
[15]
  Activity: inactive
[16]
  Activity: inactive
[17]
  Activity: inactive
[18]
  Activity: Non-toxic
[11]
  Activity: inactive
[19]
  Activity: inactive
[20]
  Activity: inactive
[21]
  Activity: Non-toxic
[22]
  Activity: inactive
[23]
  Activity: inactive

## CNC1=NC(=O)[C@H]([C@H](C)c2c[nH]c3ccccc23)S1 (racemic)
[1]
  MCC: 10 µg/mL
[2]
  MCC: 30 µg/mL
[3]
  zone of inhibition at 1000 µg/mL: 36 mm
[4]
  PDD50: 3 µg/mL
[7]
  MIC: 200 µg/mL (≈ 732 µM)
[8]
  MIC: 2 µg/mL (≈ 7.32 µM)
[9]
  MIC: 2 µg/mL (≈ 7.32 µM)
[5]
  zone of inhibition at 1000 µg/mL: 29 mm
[10]
  MIC: 20 µg/mL (≈ 73.2 µM)
[13]
  MIC: 2 µg/mL (≈ 7.32 µM)
[6]
  PDD50: 5 µg/mL
[12]
  MIC: 2 µg/mL (≈ 7.32 µM)

## C[C@H](c1c[nH]c2ccccc12)[C@@H]1SC(N(C)C)=NC1=O (racemic)
[3]
  zone of inhibition at 1000 µg/mL: 0 mm
[7]
  MIC: > 200 µg/mL
[8]
  MIC: 20 µg/mL (≈ 69.6 µM)
[9]
  MIC: > 200 µg/mL
[5]
  zone of inhibition at 1000 µg/mL: 0 mm
[10]
  MIC: > 200 µg/mL
[13]
  MIC: 20 µg/mL (≈ 69.6 µM)
[11]
  Activity: inactive
[12]
  MIC: 20 µg/mL (≈ 69.6 µM)

## CCNC1=NC(=O)[C@H]([C@H](C)c2c[nH]c3ccccc23)S1 (racemic)
[1]
  MCC: 10 µg/mL
[2]
  MCC: > 100 µg/mL
[3]
  zone of inhibition at 1000 µg/mL: 34 mm
[4]
  PDD50: 5 µg/mL
[7]
  MIC: 200 µg/mL (≈ 696 µM)
[8]
  MIC: 20 µg/mL (≈ 69.6 µM)
[9]
  MIC: 20 µg/mL (≈ 69.6 µM)
[5]
  zone of inhibition at 1000 µg/mL: 16 mm
[10]
  MIC: 200 µg/mL (≈ 696 µM)
[13]
  MIC: 20 µg/mL (≈ 69.6 µM)
[11]
  Activity: inactive
[6]
  PDD50: 10 µg/mL
[12]
  MIC: 20 µg/mL (≈ 69.6 µM)

## C[C@H](c1c[nH]c2ccccc12)[C@@H]1SC(NCCO)=NC1=O (racemic)
[1]
  MCC: 100 µg/mL
[2]
  MCC: > 100 µg/mL
[3]
  zone of inhibition at 1000 µg/mL: 8 mm
[4]
  PDD50: >30 µg/mL
[7]
  MIC: 200 µg/mL (≈ 659 µM)
[8]
  MIC: 200 µg/mL (≈ 659 µM)
[9]
  MIC: 200 µg/mL (≈ 659 µM)
[5]
  zone of inhibition at 1000 µg/mL: 20 mm
[10]
  MIC: > 200 µg/mL
[13]
  MIC: 200 µg/mL (≈ 659 µM)
[11]
  Activity: inactive
[6]
  PDD50: 16 µg/mL
[12]
  MIC: 200 µg/mL (≈ 659 µM)

## C[C@H](c1c[nH]c2ccccc12)[C@@H]1SC(NCCN(C)C)=NC1=O.Cl (racemic)
[14]
  Activity: inactive
[15]
  Activity: inactive
[16]
  Activity: inactive
[17]
  Activity: inactive
[18]
  Activity: Non-toxic
[11]
  Activity: inactive
[19]
  Activity: inactive
[20]
  Activity: inactive
[21]
  Activity: Non-toxic
[22]
  Activity: inactive
[23]
  Activity: inactive

## C/N=C1/S[C@@H]([C@H](C)c2c[nH]c3ccccc23)C(=O)N1C (racemic)
[1]
  MCC: 4 µg/mL
[2]
  MCC: 12 µg/mL
[4]
  PDD50: 1.2 µg/mL
[14]
  Activity: inactive
[15]
  Activity: inactive
[7]
  MIC: 200 µg/mL (≈ 696 µM)
[16]
  Activity: inactive
[8]
  MIC: 2 µg/mL (≈ 6.96 µM)
[9]
  MIC: 2 µg/mL (≈ 6.96 µM)
[17]
  Activity: inactive
[18]
  Activity: Non-toxic
[10]
  MIC: 20 µg/mL (≈ 69.6 µM)
[13]
  MIC: 2 µg/mL (≈ 6.96 µM)
[11]
  Activity: inactive
[19]
  Activity: inactive
[6]
  PDD50: 3 µg/mL
[20]
  Activity: inactive
[12]
  MIC: 2 µg/mL (≈ 6.96 µM)
[21]
  Activity: Non-toxic
[22]
  Activity: inactive
[23]
  Activity: inactive

## CNC1=NC(=O)[C@@H]([C@H](C)c2c[nH]c3ccccc23)O1 (racemic)
[1]
  MCC: > 100 µg/mL
[3]
  zone of inhibition at 1000 µg/mL: 0 mm
[4]
  PDD50: >100 µg/mL
[7]
  MIC: > 200 µg/mL
[8]
  MIC: 200 µg/mL (≈ 777 µM)
[9]
  MIC: 200 µg/mL (≈ 777 µM)
[5]
  zone of inhibition at 1000 µg/mL: 0 mm
[10]
  MIC: > 200 µg/mL
[13]
  MIC: 200 µg/mL (≈ 777 µM)
[12]
  MIC: 200 µg/mL (≈ 777 µM)

## CNC1=NC(=O)[C@H]([C@H](C)c2c[nH]c3ccccc23)O1 (racemic) [INDOMYCIN]
[1]
  MCC: > 100 µg/mL
[3]
  zone of inhibition at 1000 µg/mL: 0 mm
[4]
  PDD50: >100 µg/mL
[7]
  MIC: 200 µg/mL (≈ 777 µM)
[8]
  MIC: 2 µg/mL (≈ 7.77 µM)
[9]
  MIC: 2 µg/mL (≈ 7.77 µM)
[5]
  zone of inhibition at 1000 µg/mL: 0 mm
[10]
  MIC: 20 µg/mL (≈ 77.7 µM)
[13]
  MIC: 2 µg/mL (≈ 7.77 µM)
[12]
  MIC: 2 µg/mL (≈ 7.77 µM)

## CC1(C)S[C@@H]2[C@H](NC(=O)[C@H](N)c3ccccc3)C(=O)N2[C@H]1C(=O)O [AMPICILLIN]
[7]
  MIC: 2 µg/mL (≈ 5.72 µM)
[8]
  MIC: 20 µg/mL (≈ 57.2 µM)
[9]
  MIC: 2 µg/mL (≈ 5.72 µM)
[10]
  MIC: 2 µg/mL (≈ 5.72 µM)
[13]
  MIC: 2 µg/mL (≈ 5.72 µM)
[12]
  MIC: 2 µg/mL (≈ 5.72 µM)

## NC(=O)c1ncn([C@@H]2O[C@H](CO)[C@@H](O)[C@H]2O)n1 [RIBAVIRIN]
[1]
  MCC: > 100 µg/mL
[2]
  MCC: > 100 µg/mL
[3]
  zone of inhibition at 1000 µg/mL: 28 mm
[4]
  PDD50: 1 µg/mL
[5]
  zone of inhibition at 1000 µg/mL: 0 mm
[6]
  PDD50: >100 µg/mL
